In patent US5952330A, “Use of NK-1 receptor antagonists for treating mania” (Merck Sharp & Dohme Ltd., priority 1997, dated 1999):

Test system: cisplatin-induced emesis in ferrets
Experiment: Ferret emesis, cisplatin-induced retches and vomits (Assay 3)
Type: in vivo
Conditions: Mustela putorius; p.o., cisplatin 10 mg/kg i.v. 60 minutes after oral dosing; 4 h observation; read-out: ferret emesis: ID90
Description: ASSAY 3: Ferret Emesis Individually housed male ferrets (1.0-2.5 kg) are dosed orally by gavage with test compound. Ten minutes later they are fed with approximately 10 g of tinned cat food. At 60 minutes following oral dosing, cisplatin (10 mg/kg) is given i.v. via a jugular vein catheter inserted under a brief period of halothane anaesthesia. The catheter is then removed, the jugular vein ligated and the skin incision closed. The ferrets recover rapidly from the anaesthetic and are mobile within 10-20 minutes. The animals are observed continuously during recovery from the anaesthetic and for 4 hours following the cisplatin injection. The numbers of retches and vomits occurring during the 4 hours after cisplatin administration are recorded by trained observers.

## C[C@@H](O[C@H]1OCCN(Cc2n[nH]c(=O)[nH]2)[C@H]1c1ccc(F)cc1)c1cc(C(F)(F)F)cc(C(F)(F)F)c1 [2-(R)-(1-(R)-(3,5-bis(trifluoromethyl)phenyl)ethoxy)-3-(S)-(4-fluorophenyl)-4-(3-(5-oxo-1H, 4H-1,2,4-triazolo)methyl)-morpholine]
  ED90: < 3 mg/kg
